Target: T1, recombinant human NK2 receptor (Homo sapiens, UniProt P21452)
T1 sequence (P21452 1-398): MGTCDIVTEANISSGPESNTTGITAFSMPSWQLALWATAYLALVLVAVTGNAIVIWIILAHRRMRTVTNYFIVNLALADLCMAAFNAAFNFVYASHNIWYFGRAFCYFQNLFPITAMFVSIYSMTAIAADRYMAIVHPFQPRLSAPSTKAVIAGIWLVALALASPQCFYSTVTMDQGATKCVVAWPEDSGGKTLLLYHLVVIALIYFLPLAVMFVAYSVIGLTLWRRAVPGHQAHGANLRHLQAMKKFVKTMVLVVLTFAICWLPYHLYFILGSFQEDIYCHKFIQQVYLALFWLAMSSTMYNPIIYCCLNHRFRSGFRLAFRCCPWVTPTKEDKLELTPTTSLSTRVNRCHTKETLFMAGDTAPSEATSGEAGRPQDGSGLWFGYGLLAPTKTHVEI
Experiment: Radioligand binding, recombinant human NK2 receptor

## Cc1ccccc1-c1cc(N2CCN(C)CC2)ncc1C(=O)N(C)Cc1cc(C(F)(F)F)cc(C(F)(F)F)c1 [EUC-001, N-(3,5-Bis-trifluoromethyl-benzyl)-N-methyl-6-(4-methyl-piperazine-1-yl)-4-o-tolyl-nicotinamide]
  Ki: 3.4 µM

Reference: publication PMC10970734, “Identification of an Intravenous Injectable NK1 Receptor Antagonist for Use in Traumatic Brain Injury” (International Journal of Molecular Sciences, 2024)
